In test [1] the target is T1, wild type transthyretin (Homo sapiens, UniProt P02766). Nature of the test: Mass spectrometric analysis of subunit exchange. The format is biochemical. Also on record: made in house. Conditions: 4.4 μM labelled proteins, 2-fold molar excess of ligand, room temperature and 4° C. The method, then:
4.2 Mass spectrometric analysis of subunit exchange. Recombinant wild type, L55P and V30M transthyretin variants were biosynthetically labelled with isotopes [^15N] and [^15N, ^13C] as previously described (Keetch C A et al, 2005). Immediately prior to analysis, proteins were buffer exchanged into 20 mM ammonium acetate, pH 7.0 using Micro Biospin columns (Bio-Rad, UK). The subunit composition of transthyretin was monitored as a function of time by incubating an equimolar solution (4.4 μM) of [^15N] and [^15N, ^13C] labelled proteins in the presence of 2-fold molar excess of 4ajm15 in DMSO or 2.5% DMSO alone as a control. Each experiment was carried out in triplicate at room temperature and at 4° C. as well, since it is known that subunit exchange is accelerated at low temperatures. Nanoflow ESMS was performed on a QToF2 instrument (Waters/Micromass UK, Ltd.) modified for high mass operation (Sobott et al, (2002)) and calibrated externally using caesium iodide (100 mg/ml). Each solution, 1.5 μl, was electrosprayed from gold coated borosilicate capillaries prepared in-house as described (Nettleton E J, et al, 1998). […]

For a further test, the target named is T2, V30M transthyretin (Homo sapiens, UniProt P02766, V50M).
T2 construct: made in house
Nature of the test: Mass spectrometric analysis of ligand dissociation under increasing cone voltage. The test is classed as binding. To be noted: equimolar 4.4 μM with wild type, 2 fold excess of ligand. The source says:
4.3. Mass spectrometric analysis of dissociation of 4ajm15 from wild type and amyloidogenic variant transthyretin. ESMS spectra were acquired under increasing cone voltage conditions to induce stepwise dissociation of the ligand from wild type transthyretin and amyloidogenic variants V30M and L55P transthyretin. As the cone voltage increases splitting becomes apparent in the tetramer peaks, corresponding to apo (protein alone) and holo (protein+ligand) transthyretin as ligand begins to dissociate.
The onset of ligand dissociation from V30M transthyretin occurs at the same energy level but the peak height corresponding to apo V30M transthyretin is lower than that for wild type (FIG. 17). Since these two species have very similar amino acid sequences (and therefore similar charging during MS ionisation) they are able to act as internal standards for each other. Therefore a lower peak height for apo V30M compared to apo WT is indicative of a lower proportion of apo V30M than apo WT. At increasing energy levels apo V30M is consistently lower relative to apo WT and as ligand dissociation from WT is complete, a proportion of holo V30M is still present.
V30M transthyretin and [^15N, ^13C] wild type transthyretin in a 2 fold excess of ligand. […]

The target in test [2] is L55P variant transthyretin (Homo sapiens, UniProt P02766, L75P). Briefly: Mass spectrometric analysis of subunit exchange. The test is classed as biochemical. Also on record: made in house. Conditions: for subunit exchange of L55P transthyretin: in words. How it is done: 4.2 Mass spectrometric analysis of subunit exchange. Recombinant wild type, L55P and V30M transthyretin variants were biosynthetically labelled with isotopes [^15N] and [^15N, ^13C] as previously described (Keetch C A et al, 2005). Immediately prior to analysis, proteins were buffer exchanged into 20 mM ammonium acetate, pH 7.0 using Micro Biospin columns (Bio-Rad, UK). The subunit composition of transthyretin was monitored as a function of time by incubating an equimolar solution (4.4 μM) of [^15N] and [^15N, ^13C] labelled proteins in the presence of 2-fold molar excess of 4ajm15 in DMSO or 2.5% DMSO alone as a control. Each experiment was carried out in triplicate at room temperature and at 4° C. as well, since it is known that subunit exchange is accelerated at low temperatures. Nanoflow ESMS was performed on a QToF2 instrument (Waters/Micromass UK, Ltd.) modified for high mass operation (Sobott et al, (2002)) and calibrated externally using caesium iodide (100 mg/ml). Each solution, 1.5 μl, was electrosprayed from gold coated borosilicate capillaries prepared in-house as described (Nettleton E J, et al, 1998). To preserve the non-covalent interactions in the transthyretin tetramer, the MS parameters applied were: capillary voltage 1.6 kV, sample cone 160 V, extractor cone 20 V, ion transfer stage pressure 7.0×10 ^−3 mbar, quadrupole analyzer pressure 9.5×10^−4 mbar and ToF analyzer pressure 1.7×10^−6 mbar. Data were processed with MassLynx software (Waters/Micromass UK, Ltd.) and are presented with minimal smoothing and without background subtraction.
This most unstable transthyretin variant rapidly undergoes spontaneous and extensive subunit exchange, as illustrated in FIG. 8. FIGS. 9-11 show the effects of decreasing molar ratios of mds84 on inhibition of subunit exchange. […] At lower molar ratios of mds84 some exchange takes place but the transthyretin molecules which bind mds84 are still completely stabilized.

Test [3] concerns the target T1, wild type transthyretin. Briefly: Inhibition of transthyretin aggregation at acidic pH (turbidity at 400 nm). The test is classed as biochemical. The arrangement: isolated from pooled normal human plasma, was obtained from Scipac; purchased Scipac Ltd, Sittingbourne, Kent, UK; host or cells: pooled normal human plasma. Conditions: pH 4.4, 3 d 37° C. How it is done: 3.3.1 Wild type transthyretin. The purified wild type transthyretin (liquid and lyophilised) used in these experiments, isolated from pooled normal human plasma, was obtained from Scipac, (Sittingbourne, Kent, UK). Protein concentration was determined by absorbance at 280 nm after correction for light scattering at 320 nm using the absorption coefficient E1 cm^1%=14.0. […] Nano electrospray ionisation mass spectrometry confirmed the presence of normal and cysteinylated transthyretin monomers (Terazaki et al, 1998) under denaturing conditions, and solvent-bound transthyretin tetramer (Nettleton et al, 1998) under mild desolvation conditions.
3.3.2 Inhibition of transthyretin aggregation by 4ajm15: In pilot experiments, transthyretin aggregates were formed from wild type transthyretin (3.6 μM) after incubation at acidic pH for 3 d at 37° C. (Colon and Kelly, 1992). The efficacy of 4ajm15 as an inhibitor of transthyretin aggregate formation was then compared with other transthyretin ligand compounds. […] After 30 min at 37° C., the pH was adjusted to pH 4.4 (with 0.2 M sodium acetate buffer pH 4.0), and the ˜1 ml mixtures were incubated unstirred for 3 d at 37° C.
Using the same method the activities of mds84 and 4ajm15 as inhibitors of the aggregation of both wild type transthyretin and the most aggressively aggregating transthyretin variant, L55P, were evaluated in triplicate with both proteins at 3.6 μM and with one (3.6 μM) or 3 equivalents (10.8 μM) of each ligand. Wild type transthyretin was studied at pH 4.4 and L55P at pH 5.0. […] Mean values and standard deviations are shown in Table 2 and in FIG. 4, where results with 1:1 molar ratio are shown cross hatched and 3:1 molar ratio in open bars.

“Also recorded” adds a separate entry of the source.

Results on 2 molecules are retold here after US8236984B2, “Compound and use thereof in the treatment of amyloidosis” (Pentraxin Therapeutics Ltd., priority 2007, dated 2012).

On to `O=C(O)c1ccccc1Nc1cc(Cl)c(OCCCCCCCCCCCOc2c(Cl)cc(Nc3ccccc3C(=O)O)cc2Cl)c(Cl)c1` [4ajm15, 2,2′-(4,4′-(undecane-1,11-diylbis(oxy))bis(3,5-dichloro-4,1-phenylene))bis(azanediyl)dibenzoic acid], for which, at wild type transthyretin [1], the “subunit exchange of wild type transthyretin” value is given as “prevents any subunit exchange; also recorded: almost complete absence of exchange after 7 days”. For the same molecule, on V30M transthyretin, the “peak height of apo V30M transthyretin at onset of dissociation (spectrum β)” value is listed as around 45%. In addition, the “subunit exchange of L55P transthyretin” value in test [2] was “Exactly the same effect”. Besides, on wild type transthyretin [3] (wild type, in words), the “transthyretin aggregate formation in the presence of ligand” value is listed as “dramatically reduced; also recorded: identical to those with mds84”.
Consider `O=C(O)c1ccccc1Nc1cc(Cl)c(OCCCCCCCOc2c(Cl)cc(Nc3ccccc3C(=O)O)cc2Cl)c(Cl)c1` [mds84, 2,2′-(4,4′-(heptane-1,7-diylbis(oxy))bis(3,5-dichloro-4,1-phenylene))bis(azanediyl)dibenzoic acid], for which the “ligand bound per mole of transthyretin for complete stabilization” value in test [2] (L55P variant, decreasing molar ratios of ligand) was “one mole”. Further, in test [2], the “subunit exchange of L55P transthyretin” value is “completely inhibits all subunit exchange”. In addition, the “Aggregation of transthyretin, Mean (1:1)” value on wild type transthyretin [3] (wild type 3.6 μM, ligand 3.6 μM) is on record as 1.7 per cent of control with DMSO alone. Moreover, at wild type transthyretin [3] (wild type 3.6 μM, ligand 10.8 μM), the “Aggregation of transthyretin, Mean (3:1)” value is recorded as 2 per cent of control with DMSO alone.
